Common to all, as to type: cell-based
Details in all cases: third passage, control = 5 μg/mL human holo-transferrin, duplicate cultures

One assay relates to CHO cells. In words: Growth of CHO cells in transferrin-free CD CHO medium with metal binding compounds. The protocol: The ability of metal binding compounds to support cellular growth in the absence of transferrin was evaluated using CHO cells maintained in CD CHO medium (Life Technologies, Rockville, Md., the formulation of which is described in WO 98/08934). Stock cultures containing 5 μg/mL human holo-transferrin were prepared in CD CHO medium. For metal binding compound evaluation, CHO cells were established in 125 mL shaker flasks at an initial viable seeding density of 1×10^5 cells/mL in a final volume of 20 mL. All cultures were maintained at 37° C. in humidified air containing 8% CO2. To eliminate transferrin carry-over effects, cells were subcultured at 4 day intervals for a total of three passages. Positive control cultures contained 5 μg/mL human holo-transferrin while negative control cultures were established in the absence of either transferrin or metal binding compound. Metal binding compound stocks were prepared at 0.1M-0.2M in ddH2O and solubilized when necessary using 5N NaOH or HCl. Iron complexes were established using 0.2M metal binding compound and iron stocks mixed 1:1 (v/v) and incubated for 5-10 minutes at 22° C. All solutions containing metal binding compounds were filter sterilized using a 0.22 μm Millex-GV filter prior to addition to transferrin and serum-free media.
(§1) In most cases, metal binding compounds were evaluated either alone or in combination with ferric chloride or ferrous sulfate at 25 μM, 50 μM and 100 μM. Values in the table represent the mean percentage of control growth for duplicate cultures determined at the third passage.
The ability of various metal binding compounds to substitute for transferrin in the culture of CHO cells was determined. When added to the medium formulation un-complexed, the metal binding compound is listed alone, when added as a complex with a transition metal, the source of the transition metal is listed with the metal binding compound.

A further assay has as its system Sp2/0 cells. Briefly: Growth of Sp2/0 cells in transferrin-free CD Hybridoma medium with metal binding compounds. The method, then:
The ability of iron metal binding compounds to support cellular growth in the absence of transferrin was evaluated using Sp2/0 cells maintained in CD Hybridoma medium (Life Technologies, Rockville, Md.). Stock cultures containing 5 μg/mL human holo-transferrin were prepared in CD Hybridoma medium. For metal binding compound evaluation, Sp2/0 cells were established at an initial viable cell density of 0.5×10^5 cells/mL in stationary culture using 75 cm^2 tissue culture flasks in a final volume of 20 mL. All cultures were maintained at 37° C. in humidified air containing 8% CO2. To eliminate transferrin carry-over effects, cells were subcultured at the same seeding density at 4 day intervals for a total of three passages. Positive control cultures contained 5 μg/mL human holotransferrin while negative control cultures were established in the absence of either transferrin or metal binding compound. Metal binding compound stocks were prepared at 0.1M-0.2M in ddH2O and solubilized when necessary using 5N NaOH or HCl. Iron complexes were established using 0.2M metal binding compound and iron stocks mixed 1:1 (v/v) and incubated for 5-10 minutes at 22° C. All solutions containing metal binding compounds were filter sterilized using a 0.22 μm Millex-GV filter prior to addition to transferrin and serum-free media.
as §1
(§2) When added to the medium formulation un-complexed, the metal binding compound is listed alone, when added as a complex with a transition metal, the source of the transition metal is listed with the metal binding compound.

A further assay relates to 293 cells. Briefly: Growth of 293 cells in transferrin-free 293 SFM with metal binding compounds. The method, then: Semi-confluent adherent cultures of 293 Cells (ATCC, CRL 1573) are readily adapted to suspension culture. The cells are first detached with a solution of Trypsin-EDTA (0.05% Trypsin, 0.53 mM Na4EDTA), and then resuspended in conventional medium supplemented with 10% FBS to inhibit the trypsin. The resuspended cells are centrifuged at 200×g for five minutes. The cell pellet is resuspended in 293 SFM (available from Life Technologies, Rockville, Md.) the formulation of which is described in WO 98/08934 which is specifically incorporated herein by reference. Alternatively, the cells may be detached with Versene (Na4EDTA, 0.53 mM) and resuspended in 293 SFM.
The initial seeding density of the 293 cells after conversion to suspension culture is 1×10^6 cells/mL. The cells are shaken on a rotary shaker at 150 rpm in a 37° C. incubator equilibrated with 8% CO2-92% air. When the cells reach a density of 1.5×10^6 cells/mL they are diluted with 293 SFM to a density of 3.0×10^5 cells/mL. Because 293 cells have a tendency to aggregate, the cells may be vortexed vigorously for approximately 45 seconds to obtain a predominantly single cell suspension at the time of passaging and counting. After several passages in suspension culture, the maximum achievable density may be determined.
The ability of metal binding compounds to support cellular growth was evaluated using 293 cells maintained in 293 SFM (Life Technologies, Rockville, Md.) without transferrin or metal binding compound. Stock cultures containing 5 μg/mL human holo-transferrin were prepared in 293 SFM. For metal binding compound evaluation, 293 cells were established in 125 mL shaker flasks at an initial viable seeding density of 2×10^5 cells/mL in a final volume of 20 mL. All cultures were maintained at 37° C. in humidified air containing 8% CO2. To eliminate transferrin carry-over effects, cells were subcultured at 4 day intervals for a total of three passages. At each subculturing, cells were seeded at a density of 2×10^5 cells/mL. Positive control cultures contained 5 μg/mL human holo-transferrin while negative control cultures were established in the absence of either transferrin or metal binding compound. Metal binding compound stocks were prepared at 0.1M-0.2M in ddH2O and solubilized when necessary using 5N NaOH or HCl. Iron complexes were established using 0.2M metal binding compound and iron stocks mixed 1:1 (v/v) and incubated for 5-10 minutes at 22° C. All solutions containing metal binding compounds were filter sterilized using a 0.22 μm Millex-GV filter prior to addition to transferrin and serum-free media.
In most cases, metal binding compounds were evaluated either alone or in combination with ferric chloride or ferrous sulfate at 25 μM, 50 μM and 100 μM. When used in combination, the metal binding compounds were used in equimolar concentration with iron ions. Values in the table represent the mean percentage of control growth for duplicate cultures determined at the third passage.
as §2

Each structure is given as a SMILES string.

As to `O=C(O)c1cccc(O)c1O.[Cl][Fe]([Cl])[Cl]` [2,3-Dihydrobenzoic Acid · Ferric Chloride], the “mean percentage of control growth” value in the assay on CHO cells (25 μM) amounted to 71%; in the assay on CHO cells (50 μM), 0%; in the assay on CHO cells (100 μM), 0%.
For `O=c1cc(CO)occ1O` [Kojic Acid], the “mean percentage of control growth” value with CHO cells (25 μM), with CHO cells (50 μM), with CHO cells (100 μM), in the assay with Sp2/0 cells (25 μM), with Sp2/0 cells (50 μM) and in the assay on Sp2/0 cells (100 μM) was 0% throughout.
For the compound `O=C(O)c1ccccn1.[Cl][Fe]([Cl])[Cl]` [2-Pyridinecarboxylic Acid · Ferric Chloride], the “mean percentage of control growth” value in the assay with CHO cells (25 μM) came to 88%; in the assay on CHO cells (50 μM), 89%; with CHO cells (100 μM), 100%; in the assay with Sp2/0 cells (25 μM), 0%; in the assay on Sp2/0 cells (50 μM) it was 30%; with Sp2/0 cells (100 μM) it was 48%.
In the case of `O=C(O)CN(CCN(CC(=O)O)CC(=O)O)CCN(CC(=O)O)CC(=O)O.O=S(=O)([O-])[O-].[Fe+2]` [Diethylenetriamine Penta-Acetic Acid · Ferrous Sulfate], the “mean percentage of control growth” value in the assay on 293 cells (25 μM) was 77%; in the assay with 293 cells (50 μM), 107%; in the assay with 293 cells (100 μM), 85%; in the assay on CHO cells (25 μM), 135%; in the assay on CHO cells (50 μM), 137%; in the assay on CHO cells (100 μM), 147%. The “mean percentage of control growth” value in the assay on Sp2/0 cells (25 μM) was 54%; in the assay with Sp2/0 cells (50 μM) it was 90%; in the assay on Sp2/0 cells (100 μM), 91%.
Turning to `Cc1ncc(CO)c(C(=O)O)c1O.[Cl][Fe]([Cl])[Cl]` [4-Pyridoxic Acid · Ferric Chloride], the “mean percentage of control growth” value in the assay on 293 cells (25 μM) worked out at 109%; with 293 cells (50 μM), 85%; in the assay on 293 cells (100 μM) it was 99%; in the assay with CHO cells (25 μM) it was 55%; with CHO cells (50 μM), 63%; in the assay on CHO cells (100 μM), 100%. Besides, the “mean percentage of control growth” value was found to be 40% with Sp2/0 cells (25 μM), 73% with Sp2/0 cells (50 μM) and 76% with Sp2/0 cells (100 μM).
As for `CCc1occc(=O)c1O` [2-Ethyl-3-Hydroxy-4-Pyrone], the “mean percentage of control growth” value in the assay on 293 cells (25 μM) is recorded as 59%; in the assay on 293 cells (50 μM), 120%; in the assay with 293 cells (100 μM) it was 126%; with CHO cells (25 μM), 9%; in the assay with CHO cells (50 μM) it was 60%; in the assay on CHO cells (100 μM) it was 113%. In addition, the “mean percentage of control growth” value stood at 0% in the assay with Sp2/0 cells (25 μM), 75% in the assay with Sp2/0 cells (50 μM) and 116% with Sp2/0 cells (100 μM).
As to `NC(CS)C(=O)O.O=S(=O)([O-])[O-].[Fe+2]` (stereo not drawn) [Cysteine · Ferrous Sulfate], the “mean percentage of control growth” value is reported as 83% in the assay on CHO cells (25 μM); 64% with CHO cells (50 μM); 45% in the assay with CHO cells (100 μM); 85? % in the assay on Sp2/0 cells (25 μM); 79% in the assay with Sp2/0 cells (50 μM); 67% with Sp2/0 cells (100 μM).
For `NC(CC(=O)O)C(=O)O.[Cl][Fe]([Cl])[Cl]` (stereo not drawn) [Aspartic Acid · Ferric Chloride], the “mean percentage of control growth” value came to 81% in the assay on 293 cells (25 μM); 86% with 293 cells (50 μM); 100% with 293 cells (100 μM); 77% in the assay with CHO cells (25 μM); 89% with CHO cells (50 μM); 112% with CHO cells (100 μM).
As to `O=c1cc(CO)occ1O.[Cl][Fe]([Cl])[Cl]` [Kojic Acid · Ferric Chloride], the “mean percentage of control growth” value was found to be 89% with CHO cells (25 μM); 88% in the assay on CHO cells (50 μM); 85% with CHO cells (100 μM); 0% in the assay with Sp2/0 cells (25 μM); 0% in the assay with Sp2/0 cells (50 μM); 0% with Sp2/0 cells (100 μM).
As to `[Cl][Fe]([Cl])[Cl].c1ccc(Nc2ccccn2)nc1` [2,2-Dipyridylamine · Ferric Chloride], the “mean percentage of control growth” value in the assay with 293 cells (25 μM) is recorded as 118%; with 293 cells (50 μM) it was 96%; in the assay with 293 cells (100 μM), 101%; with CHO cells (25 μM), 40%; with CHO cells (50 μM), 48%; in the assay on CHO cells (100 μM) it was 65%.
Consider `NCCCCC(N)C(=O)O.[Cl][Fe]([Cl])[Cl]` (stereo not drawn) [Lysine · Ferric Chloride], for which the “mean percentage of control growth” value came to 51% in the assay on CHO cells (25 μM), 79% with CHO cells (50 μM) and 98% in the assay with CHO cells (100 μM).
`O=C(O)c1ccc[n+]([O-])c1.[Cl][Fe]([Cl])[Cl]` [Nicotinic Acid-N-Oxide · Ferric Chloride]: the “mean percentage of control growth” value in the assay with 293 cells (25 μM) is listed as 104%; in the assay with 293 cells (50 μM), 80%; in the assay on 293 cells (100 μM), 79%; in the assay with CHO cells (25 μM), 60%; with CHO cells (50 μM) it was 84%; with CHO cells (100 μM), 105%.
Consider `OC[C@@H](O)[C@@H](O)[C@H](O)[C@@H](O)CO.[Cl][Fe]([Cl])[Cl]` [Sorbitol · Ferric Chloride], for which the “mean percentage of control growth” value in the assay on CHO cells (25 μM) turned out to be 100%; with CHO cells (50 μM) it was 107%; with CHO cells (100 μM), 112%; in the assay on Sp2/0 cells (25 μM), 94%; in the assay on Sp2/0 cells (50 μM) it was 55%; in the assay with Sp2/0 cells (100 μM), 60%.
